Consider one compound from patent US12161669B2, “Compositions and methods for cell targeting therapies” (UMC UTRECHT HOLDING B.V., priority 2017, dated 2024).

SMILES strings stand for the structures.

Common to all, as to assay type: cell-based
One experiment has as its system RhoB. Briefly: Intracellular RhoB distribution by confocal microscopy in cell lines. To be noted: cell lines (EBV-LCL 48).
The test system of the next experiment is CD277 and F-actin. Briefly: Colocalization of CD277 and F-actin in HEK 293 cells. As to conditions: single agent vs medium. As for the experimental part:
To determine colocalization between BTN3 molecules and the actin cytoskeleton, HEK 293 cells were grown onto poly-L-lysin-coated coverslips and pretreated with either calpeptin (2 μg/ml) or C3 transferase (20 μg/ml) prior to treating samples with pamidronate Cells were fixed, permeabilized and BTN3 and F-actin were stained with DyLight 680-conjugated BTN3 antibody (clone BT3.1, Novus Biologicals) and Fluorescein-coupled phalloidin (Sigma), respectively. The correlation coefficient between BTN3 and F-actin signal was determined as a measure of colocalization using Volocity software.

The test system of another experiment is CD277. Briefly: dSTORM super-resolution imaging of CD277 clusters on HEK293FT cells. As to conditions: 100 uM pamidronate vs medium, DBSCAN. The method, then: HEK293FT cells were plated in eight-well Lab-Tek chambers to adhere and treated with 100 uM pamidronate overnight. For super-resolution imaging, cells were labeled with AF647-CD277 at RT. After labeling, cells were washed with PBS and fixed with 4% PFA and 0.2% gluteraldehyde for 1-2 h. Prior to super-resolution imaging, 200 μL of fresh SRB (Super-resolution buffer: 50 mM Tris, 10 mM NaCl, 10% glucose, 168.8 U/mL glucose oxidase, 1404 U/mL catalase, 10 mM cysteamine hydrochloride, pH 8.0) was added to the well. dSTORM imaging was performed using an inverted microscope (IX71; Olympus America) equipped with an oil-immersion objective 1.45-NA total internal reflection fluorescence objective (U-APO 150×; Olympus America). […]
dSTORM images were analyzed and reconstructed with custom-built MATLAB functions as described previously (Smith et al 2010, Nat Methods: Huang et al 2011, Biomed Opt Express). […]
Finally, in order to understand whether the enhanced recruitment of low affinity CTE-C13 TCR in the synapse was a result of changes in CD277 clustering due to the PAM treatment, direct stochastic optical reconstruction microscopy (dSTORM), a localization-based super-resolution imaging technique that provides ˜20 nm resolution was performed. […] To quantify the images, a density-based spatial clustering application (DBSCAN) was utilized. […]

Experimental for RhoB: For intracellular immunofluorescence staining of RhoB, cells were treated with pamidronate overnight (where indicated) and were allowed to attach onto coverslips precoated with poly-Llysine (Sigma-Aldrich). […] Cells were washed with blocking serum, fixed with 4% paraformaldehyde, stained with DAPI (where indicated), and mounted onto microscopy slides using Mowiol. Images were acquired using a Zeiss confocal laser scanning microscope LSM 700. Ratios between nuclear and extranuclear signal of RhoB was determined using Volocity software (PerkinElmer) or Image J software, where DAPI staining was used, when available, to mark nuclei.

Consider `NCCC(O)(P(=O)(O)O)P(=O)(O)O` [pamidronate], for which the “Re-localization of RhoB from the nucleus or nuclear membrane to extranuclear sites” value in the experiment on RhoB is reported as “induced”. For the same compound, the “colocalization between CD277 and F-actin” value with CD277 and F-actin is on record as “markedly reduced”. Besides, in the experiment on CD277, the “CD277 localization cluster size, density or number” value is recorded as “did not dramatically change”.
